In brackets after ≈: the same amount, converted by molar mass.
System: Staphylococcus aureus
Test: Antibacterial activity against Staphylococcus aureus ATCC 25923
Format: functional
Conditions: for MIC: Staphylococcus aureus, ATCC 25923

MIC [µg/mL]	Compound	Log (1/C)	log(1/C)
16 (≈ 32.1 µM)	CC(=O)NC[C@H]1CN(c2ccc(N3CCN(C(=O)/C=C/c4ccc(O)c(O)c4)CC3)c(F)c2)C(=O)O1	1.4936	
> 16	CC(=O)NC[C@H]1CN(c2ccc(N3CCN(C(=O)/C=C/c4ccc(OC(=O)C(C)(C)C)cc4)CC3)c(F)c2)C(=O)O1	1.5492	
> 16	CC(=O)NC[C@H]1CN(c2ccc(N3CCN(C(=O)/C=C/c4ccc(F)c(F)c4)CC3)c(F)c2)C(=O)O1	1.4971	
0.25 (≈ 0.518 µM)	C/C(S)=N/C[C@H]1CN(c2ccc(N3CCN(C(=O)/C=C/c4ccccc4)CC3)c(F)c2)C(=O)O1	3.2857	
8 (≈ 14.3 µM)	CC(=O)NC[C@H]1CN(c2ccc(N3CCN(C(=O)/C=C/c4ccc(OS(C)(=O)=O)cc4)CC3)c(F)c2)C(=O)O1	1.8456	
2 (≈ 4.28 µM)	CC(=O)NC[C@H]1CN(c2ccc(N3CCN(C(=O)/C=C/c4ccncc4)CC3)c(F)c2)C(=O)O1	2.3688	
2 (≈ 4.39 µM)	CC(=O)NC[C@H]1CN(c2ccc(N3CCN(C(=O)/C=C/c4ccc[nH]4)CC3)c(F)c2)C(=O)O1	2.3575	
2 (≈ 4.23 µM)	CC(=O)NC[C@H]1CN(c2ccc(N3CCN(C(=O)/C=C/c4ccsc4)CC3)c(F)c2)C(=O)O1	2.3735	
2 (≈ 4.38 µM)	CC(=O)NC[C@H]1CN(c2ccc(N3CCN(C(=O)/C=C/c4ccco4)CC3)c(F)c2)C(=O)O1	2.3584	
1 (≈ 2.12 µM)	CC(=O)NC[C@H]1CN(c2ccc(N3CCN(C(=O)/C=C/c4cccs4)CC3)c(F)c2)C(=O)O1	2.6745	
4 (≈ 9.04 µM)	CC(=O)NC[C@H]1CN(c2ccc(N3CCN(C/C=C/c4ccco4)CC3)c(F)c2)C(=O)O1	2.0439	
4 (≈ 8.5 µM)	CC(=O)NC[C@H]1CN(c2ccc(N3CCN(C(=O)/C=C/c4ccc(C)o4)CC3)c(F)c2)C(=O)O1	2.0706	
2 (≈ 4.1 µM)	CC(=O)NC[C@H]1CN(c2ccc(N3CCN(C/C=C/c4ccc([N+](=O)[O-])o4)CC3)c(F)c2)C(=O)O1	2.387	
1 (≈ 2.11 µM)	NC(=S)NC[C@H]1CN(c2ccc(N3CCN(C(=O)/C=C/c4ccco4)CC3)c(F)c2)C(=O)O1	2.6754	
8 (≈ 15.1 µM)	CC(=O)NC[C@H]1CN(c2ccc(N3CCN(C(=O)/C=C/c4ccc(COC(C)=O)o4)CC3)c(F)c2)C(=O)O1	1.82	
0.5 (≈ 1.02 µM)	NC(=S)NC[C@H]1CN(c2ccc(N3CCN(C(=O)/C=C/c4cccs4)CC3)c(F)c2)C(=O)O1	2.9909	
4 (≈ 8.22 µM)	CC(=O)NC[C@H]1CN(c2ccc(N3CCN(C(=O)/C=C/c4ccc(CO)o4)CC3)c(F)c2)C(=O)O1	2.0851	
4 (≈ 8.25 µM)	NC(=S)NC[C@H]1CN(c2ccc(N3CCN(C(=O)/C=C/c4ccncc4)CC3)c(F)c2)C(=O)O1	2.0833	
0.25 (≈ 0.512 µM)	C/C(S)=N/C[C@H]1CN(c2ccc(N3CCN(C(=O)/C=C/c4cccs4)CC3)c(F)c2)C(=O)O1	3.2911	

MIC [µg/mL]	Compound	Log (1/C)	log(1/C)
0.25 (≈ 0.483 µM)	C/C(S)=N/C[C@H]1CN(c2ccc(N3CCN(C(=O)/C=C/c4ccc([N+](=O)[O-])o4)CC3)c(F)c2)C(=O)O1	3.316	
2 (≈ 4.38 µM)	CC(=O)NC[C@H]1CN(c2ccc(N3CCN(C(=O)/C=C/c4ccoc4)CC3)c(F)c2)C(=O)O1	2.3584	
2 (≈ 3.96 µM)	CC(=O)NC[C@H]1CN(c2ccc(N3CCN(C(=O)/C=C/c4c[nH]c5ccccc45)CC3)c(F)c2)C(=O)O1	2.4028	
1 (≈ 2 µM)	NC(=S)NC[C@H]1CN(c2ccc(N3CCN(C(=O)/C=C/c4ccc(O)cc4)CC3)c(F)c2)C(=O)O1	2.6986	
1 (≈ 2.14 µM)	CC(=O)NC[C@H]1CN(c2ccc(N3CCN(C(=O)/C=C/c4cccnc4)CC3)c(F)c2)C(=O)O1	2.6698	
> 16	CC(C)(C)C(=O)Oc1ccc(/C=C/C(=O)N2CCN(c3ccc(N4C[C@H](CNC(N)=S)OC4=O)cc3F)CC2)cc1	1.5621	
2 (≈ 4.14 µM)	CC(=O)NC[C@H]1CN(c2ccc(N3CCN(C(=O)/C=C/c4ccc(O)cc4)CC3)c(F)c2)C(=O)O1	2.3825	
2 (≈ 4.14 µM)	CC(=O)NC[C@H]1CN(c2ccc(N3CCN(C(=O)/C=C/c4cccc(O)c4)CC3)c(F)c2)C(=O)O1	2.3825	
4 (≈ 8.57 µM)	CC(=O)NC[C@H]1CN(c2ccc(N3CCN(C(=O)/C=C/c4ccccc4)CC3)c(F)c2)C(=O)O1	2.0669	
> 16	CC(=O)NC[C@H]1CN(c2ccc(N3CCN(C(=O)/C=C/c4ccc(C(=O)O)o4)CC3)c(F)c2)C(=O)O1	1.4953	
0.5 (≈ 1.03 µM)	C/C(S)=N/C[C@H]1CN(c2ccc(N3CCN(C(=O)/C=C/c4ccncc4)CC3)c(F)c2)C(=O)O1	2.9855	
4 (≈ 8.26 µM)	CC(=O)NC[C@H]1CN(c2ccc(N3CCN(C(=O)/C=C/c4ccc(C=O)o4)CC3)c(F)c2)C(=O)O1	2.0833	
0.5 (≈ 0.959 µM)	C/C(S)=N/C[C@H]1CN(c2ccc(N3CCN(C(=O)/C=C/c4c[nH]c5ccccc45)CC3)c(F)c2)C(=O)O1	3.0184	
0.25 (≈ 0.478 µM)	NC(=S)NC[C@H]1CN(c2ccc(N3CCN(C(=O)/C=C/c4c[nH]c5ccccc45)CC3)c(F)c2)C(=O)O1	3.3318	
0.5 (≈ 1.06 µM)	C/C(S)=N/C[C@H]1CN(c2ccc(N3CCN(C(=O)/C=C/c4ccco4)CC3)c(F)c2)C(=O)O1	2.9755	
1 (≈ 2.07 µM)	NC(=S)NC[C@H]1CN(c2ccc(N3CCN(C(=O)/C=C/c4ccccc4)CC3)c(F)c2)C(=O)O1	2.6845	
2 (≈ 4.01 µM)	C/C(S)=N/C[C@H]1CN(c2ccc(N3CCN(C(=O)/C=C/c4ccc(O)cc4)CC3)c(F)c2)C(=O)O1		2.3967
4 (≈ 10.1 µM)	CC(=O)NC[C@H]1CN(c2ccc(N3CCN(C(=O)CO)CC3)c(F)c2)C(=O)O1 [EPEREZOLID]	1.9939	

Compound	MIC [µg/mL]	Log (1/C)	log(1/C)
CC(=O)NC[C@H]1CN(c2ccc(N3CCN(C(=O)/C=C/c4ccc([N+](=O)[O-])o4)CC3)c(F)c2)C(=O)O1	0.25 (≈ 0.499 µM)	3.3024	
CC(=O)NC[C@H]1CN(c2ccc(N3CCN(C(=O)/C=C/c4ccc([N+](=O)[O-])s4)CC3)c(F)c2)C(=O)O1	0.25 (≈ 0.483 µM)	3.316	
